Laboratory results from patent US20240060999A1, “BLOOD COAGULATION INSPECTION METHOD” (FUJIMORI KOGYO CO., LTD, priority 2020, published 2024).

System: whole blood
Experiment: ROTEM whole blood coagulation with rabbit brain-derived tissue thromboplastin (TP) + Ca 12 mM (CTI 20 μg/mL, PKSI-527 40 μM where stated)
Format: cell-based
Conditions: for prolongation of blood clotting time with rTM by addition of heparan sulfate: reagents (1)-(4), all conditions, heparan sulfate 1 μg/mL
[1] = Ex15, TP 0.033 μg/mL+Ca+CTI+PKSI-527, heparan sulfate 0.3 μg/mL, no rTM
[2] = Ex15, TP 0.033 μg/mL+Ca+CTI+PKSI-527, heparan sulfate 0.3 μg/mL, rTM 5 nM
[3] = Ex15, TP 0.033 μg/mL+Ca+CTI+PKSI-527, heparan sulfate 0.4 μg/mL, no rTM
[4] = Ex15, TP 0.033 μg/mL+Ca+CTI+PKSI-527, heparan sulfate 0.4 μg/mL, rTM 5 nM
[5] = Ex15, TP 0.033 μg/mL+Ca+CTI+PKSI-527, heparan sulfate 0.5 μg/mL, no rTM
[6] = Ex15, TP 0.033 μg/mL+Ca+CTI+PKSI-527, heparan sulfate 0.5 μg/mL, rTM 5 nM
[7] = Ex17, TP 0.011 μg/mL+Ca+CTI+PKSI-527, heparan sulfate 0.2 μg/mL, no rTM
[8] = Ex17, TP 0.011 μg/mL+Ca+CTI+PKSI-527, heparan sulfate 0.2 μg/mL, rTM 10 nM
[9] = Ex17, TP 0.011 μg/mL+Ca+CTI+PKSI-527, heparan sulfate 0.3 μg/mL, no rTM
[10] = Ex17, TP 0.011 μg/mL+Ca+CTI+PKSI-527, heparan sulfate 0.3 μg/mL, rTM 10 nM
[11] = Ex17, TP 0.011 μg/mL+Ca+CTI+PKSI-527, heparan sulfate 0.5 μg/mL, no rTM
[12] = Ex17, TP 0.011 μg/mL+Ca+CTI+PKSI-527, heparan sulfate 0.5 μg/mL, rTM 10 nM
[13] = Ex18, TP 0.0166 μg/mL+Ca+CTI+PKSI-527, heparan sulfate 0.3 μg/mL, no rTM
[14] = Ex18, TP 0.0166 μg/mL+Ca+CTI+PKSI-527, heparan sulfate 0.3 μg/mL, rTM 10 nM
[15] = Ex18, TP 0.0166 μg/mL+Ca+CTI+PKSI-527, heparan sulfate 0.5 μg/mL, no rTM
[16] = Ex18, TP 0.0166 μg/mL+Ca+CTI+PKSI-527, heparan sulfate 0.5 μg/mL, rTM 10 nM
[17] = Ex18, TP 0.0166 μg/mL+Ca+CTI+PKSI-527, heparan sulfate 1.0 μg/mL, no rTM
[18] = Ex18, TP 0.0166 μg/mL+Ca+CTI+PKSI-527, heparan sulfate 1.0 μg/mL, rTM 10 nM

Heparan sulfate
CT (clotting time) (Ex15, TP 0.033 μg/mL+Ca+CTI+PKSI-527, heparan sulfate 0.2 μg/mL, rTM 5 nM): 749 s | CFT (clot formation time) [1]: 171 s | CT (clotting time) [1]: 688 s | CFT (clot formation time) [2]: 251 s | CT (clotting time) [2]: 825 s | CFT (clot formation time) [3]: 206 s | CT (clotting time) [3]: 762 s | CFT (clot formation time) [4]: 334 s | CT (clotting time) [4]: 955 s | CFT (clot formation time) [5]: 248 s | CT (clotting time) [5]: 837 s | CFT (clot formation time) [6]: 407 s | CT (clotting time) [6]: 995 s | blood clotting time (Ex17, TP 0.011 μg/mL+Ca+CTI+PKSI-527, heparan sulfate 0.2 μg/mL or more, rTM 10 nM): ≥ 1 h | CFT (clot formation time) [7]: 578 s | CT (clotting time) [7]: 1408 s | CFT (clot formation time) [8]: No CFT | CT (clotting time) [8]: No CT | CFT (clot formation time) [9]: 430 s | CT (clotting time) [9]: 1630 s | CFT (clot formation time) [10]: No CFT | CT (clotting time) [10]: No CT | CFT (clot formation time) [11]: 386 s | CT (clotting time) [11]: 1178 s | CFT (clot formation time) [12]: No CFT | CT (clotting time) [12]: No CT | CFT (clot formation time) [13]: 256 s | CT (clotting time) [13]: 1035 s | CFT (clot formation time) [14]: 292.0 s | CT (clotting time) [14]: 904 s | CFT (clot formation time) [15]: 407 s | CT (clotting time) [15]: 1162 s | CFT (clot formation time) [16]: 742.0 s | CT (clotting time) [16]: 1064 s | CFT (clot formation time) [17]: No CT | CT (clotting time) [17]: 1999 s | CFT (clot formation time) [18]: No CFT | CT (clotting time) [18]: No CT | blood clotting time [18]: ≥ 1 h | CT (clotting time) (Ex30, reagent (1): TP 0.664 μg/mL+heparan sulfate 1 μg/mL+Ca, no rTM): 220 s | CT (clotting time) (Ex30, reagent (1): TP 0.664 μg/mL+heparan sulfate 1 μg/mL+Ca, rTM 25 nM): 533 s | CT (clotting time) (Ex30, reagent (1): TP 0.664 μg/mL+heparan sulfate 1 μg/mL+Ca, rTM 25 nM+APC inhibitory aptamer 1 μM): 260 s | CT (clotting time) (Ex30, reagent (2): TP 0.664 μg/mL+heparan sulfate 1 μg/mL+Ca+CTI, no rTM): 214 s | CT (clotting time) (Ex30, reagent (2): TP 0.664 μg/mL+heparan sulfate 1 μg/mL+Ca+CTI, rTM 25 nM): 448 s | CT (clotting time) (Ex30, reagent (2): TP 0.664 μg/mL+heparan sulfate 1 μg/mL+Ca+CTI, rTM 25 nM+APC inhibitory aptamer 1 μM): 287 s | CT (clotting time) (Ex30, reagent (3): TP 0.664 μg/mL+heparan sulfate 1 μg/mL+Ca+PKSI-527, no rTM): 220 s | CT (clotting time) (Ex30, reagent (3): TP 0.664 μg/mL+heparan sulfate 1 μg/mL+Ca+PKSI-527, rTM 25 nM): 444 s | CT (clotting time) (Ex30, reagent (3): TP 0.664 μg/mL+heparan sulfate 1 μg/mL+Ca+PKSI-527, rTM 25 nM+APC inhibitory aptamer 1 μM): 291 s | CT (clotting time) (Ex30, reagent (4): TP 0.664 μg/mL+heparan sulfate 1 μg/mL+Ca+CTI+PKSI-527, no rTM): 226 s | CT (clotting time) (Ex30, reagent (4): TP 0.664 μg/mL+heparan sulfate 1 μg/mL+Ca+CTI+PKSI-527, rTM 25 nM): 440 s | CT (clotting time) (Ex30, reagent (4): TP 0.664 μg/mL+heparan sulfate 1 μg/mL+Ca+CTI+PKSI-527, rTM 25 nM+APC inhibitory aptamer 1 μM): 319 s | prolongation of blood clotting time with rTM by addition of heparan sulfate (Ex30, rTM 25 nM): markedly prolonged | CT (clotting time) (Ex31, reagent (1): TP 0.664 μg/mL+heparan sulfate 1 μg/mL+Ca, no rTM): 220 s | CT (clotting time) (Ex31, reagent (1): TP 0.664 μg/mL+heparan sulfate 1 μg/mL+Ca, rTM 30 nM): 766 s | CT (clotting time) (Ex31, reagent (1): TP 0.664 μg/mL+heparan sulfate 1 μg/mL+Ca, rTM 30 nM+APC inhibitory aptamer 1 μM): 301 s | CT (clotting time) (Ex31, reagent (2): TP 0.664 μg/mL+heparan sulfate 1 μg/mL+Ca+CTI, no rTM): 214 s | CT (clotting time) (Ex31, reagent (2): TP 0.664 μg/mL+heparan sulfate 1 μg/mL+Ca+CTI, rTM 30 nM): 613 s | CT (clotting time) (Ex31, reagent (2): TP 0.664 μg/mL+heparan sulfate 1 μg/mL+Ca+CTI, rTM 30 nM+APC inhibitory aptamer 1 μM): 286 s | CT (clotting time) (Ex31, reagent (3): TP 0.664 μg/mL+heparan sulfate 1 μg/mL+Ca+PKSI-527, no rTM): 220 s | CT (clotting time) (Ex31, reagent (3): TP 0.664 μg/mL+heparan sulfate 1 μg/mL+Ca+PKSI-527, rTM 30 nM): 517 s | CT (clotting time) (Ex31, reagent (3): TP 0.664 μg/mL+heparan sulfate 1 μg/mL+Ca+PKSI-527, rTM 30 nM+APC inhibitory aptamer 1 μM): 297 s | CT (clotting time) (Ex31, reagent (4): TP 0.664 μg/mL+heparan sulfate 1 μg/mL+Ca+CTI+PKSI-527, no rTM): 226 s | CT (clotting time) (Ex31, reagent (4): TP 0.664 μg/mL+heparan sulfate 1 μg/mL+Ca+CTI+PKSI-527, rTM 30 nM): 557 s | CT (clotting time) (Ex31, reagent (4): TP 0.664 μg/mL+heparan sulfate 1 μg/mL+Ca+CTI+PKSI-527, rTM 30 nM+APC inhibitory aptamer 1 μM): 307 s | prolongation of blood clotting time with rTM by addition of heparan sulfate (Ex31, rTM 30 nM): markedly prolonged
